Measured values: patent US20160220569A1, “CDK4/6 Inhibitor Dosage Formulations For The Protection Of Hematopoietic Stem And Progenitor Cells During Chemotherapy” (G1 Therapeutics, Inc., priority 2015, published 2016)
Like-named read-outs stand apart in the source and are kept apart here.

Assay: 14-day oral gavage toxicokinetic study in rats
Assay type: in vivo
Conditions: female, rat, plasma, po; for concentration at 1 h / concentration at 2 h / concentration at 4 h / concentration at 8 h / concentration at 12 h / concentration at 24 h / concentration at 0.5 h / concentration at […]: rats; for concentration at […]: Day 14, […]; for half-life: read-out: t½ (converted)
Procedure: Plasma was obtained from blood samples collected from rats in a composite sampling scheme, with 3 samples collected per sex, per dose, at each target collection time, as illustrated in Table 21 to Table 25. Samples were collected from the vehicle control group on Day 1 and Day 14 at 3 hour after administration. […] Blood samples were collected in tubes containing K3EDTA as an anticoagulant and placed on ice until processed to plasma via centrifugation. Samples were stored frozen at −80° C. until shipment to the bioanalytical laboratory for analysis.
The following parameters were determined:
Cmax: Maximum observed plasma concentration (ng/mL).
A value of 0 ng/mL was assigned to all values below the lower limit of quantitation (BLQ, <10.0 ng/mL).
AUC(0-inf): Area under the plasma concentration vs. time curve extrapolated from 0 to infinity (ng*h/mL), calculated as AUC(0-t)+AUC(t-inf) where AUC(t-inf) is calculated as last measurable concentration (CLast) divided by ke, where ke is the elimination rate constant determined by linear regression of the last three analytically measured points on the log plasma concentration vs. time curve. The selection criteria of the data points for inclusion in the calculation of ke required that at least three data points representing the terminal phase (after Tmax) were regressed and that R2≧0.850 when rounded.
CL: Clearance (L/h/kg), calculated as the dose divided by AUC(0-t).
Vd: Volume of distribution (L/kg), calculated as dose divided by the product of ke and AUC(0-inf).
Vdss: Steady state volume of distribution (L/kg), calculated as clearance […] mean residence time, where mean residence time is calculated as the area under the first moment curve divided by AUC(0-t).
t½: Elimination half-life (h), calculated as ln(2)/ke, where ke is the elimination rate constant determined by linear regression. Half-life was defined as not determined if regression criteria (specified in AUC(0-inf) above) were not met.
Cmax/Dose: Normalized Cmax, calculated as Cmax divided by total dose.
AUC/Dose: Normalized AUC, calculated as AUC(0-t) divided by total dose.
ii. Statistical Analysis Mean and standard deviation (SD) were calculated in Watson. Values of BLQ were assigned a value of 0 ng/mL for mean calculations. Concentration values and derived TK parameters were reported to three significant figures.

[1] = 2 mg/kg, oral 2 mg/kg, Study Day 1, Female
[2] = 2 mg/kg, oral 2 mg/kg, Study Day 14, Female
[3] = 5 mg/kg, oral 5 mg/kg, Study Day 1, Female
[4] = 5 mg/kg, oral 5 mg/kg, Study Day 14, Female

For `CN1CCN(c2ccc(Nc3ncc4cc5n(c4n3)C3(CCCCC3)CNC5=O)nc2)CC1` [Compound 1, 2′-((5-(4-methylpiperazin-1-yl)pyridin-2-yl)amino)-7′,8′-dihydro-6′H-spiro[cyclohexane-1,9′-pyrazino[1′,2′:1,5]pyrrolo[2,3-d]pyrimidin]-6′-one], the concentration at 1 h (2 mg/kg, Mean Compound 1 Plasma Concentration, oral 2 mg/kg, Day 1, 1 h, Female) was 91.4 ng/mL, the concentration at 2 h (2 mg/kg, Mean Compound 1 Plasma Concentration, oral 2 mg/kg, Day 1, 2 h, Female) was 196 ng/mL and the concentration at 4 h (2 mg/kg, Mean Compound 1 Plasma Concentration, oral 2 mg/kg, Day 1, 4 h, Female) was 175 ng/mL. For the same compound, the concentration at 8 h (2 mg/kg, Mean Compound 1 Plasma Concentration, oral 2 mg/kg, Day 1, 8 h, Female) was 96.7 ng/mL, the concentration at 12 h (2 mg/kg, Mean Compound 1 Plasma Concentration, oral 2 mg/kg, Day 1, 12 h, Female) was 82.2 ng/mL and the concentration at 24 h (2 mg/kg, Mean Compound 1 Plasma Concentration, oral 2 mg/kg, Day 1, 24 h, Female) was 13 ng/mL. For the same compound, the concentration at 0.5 h (2 mg/kg, Mean Compound 1 Plasma Concentration, oral 2 mg/kg, Day 14, 0.5 h, Female) was 150 ng/mL, the concentration at 1 h (2 mg/kg, Mean Compound 1 Plasma Concentration, oral 2 mg/kg, Day 14, 1 h, Female) was 111 ng/mL and the concentration at 2 h (2 mg/kg, Mean Compound 1 Plasma Concentration, oral 2 mg/kg, Day 14, 2 h, Female) was 212 ng/mL. The concentration at 8 h (2 mg/kg, Mean Compound 1 Plasma Concentration, oral 2 mg/kg, Day 14, 8 h, Female) was 117 ng/mL, the concentration at 12 h (2 mg/kg, Mean Compound 1 Plasma Concentration, oral 2 mg/kg, Day 14, 12 h, Female) was 48.7 ng/mL and the concentration at 24 h (2 mg/kg, Mean Compound 1 Plasma Concentration, oral 2 mg/kg, Day 14, 24 h, Female) was 10.8 ng/mL. The concentration at […] (2 mg/kg, Mean Compound 1 Plasma Concentration, oral 2 mg/kg, Female) was 10 ng/mL, the AUC(0-inf) [1] was 2160 ng·h/mL and the AUC(0-t) [1] was 2060 ng·h/mL. It also gave a Cmax [1] of 196 ng/mL, a Tmax [1] of 2 h and a half-life [1] of 5.25 h. For the same compound, the AUC(0-inf) [2] was 1850 ng·h/mL, the AUC(0-t) [2] was 1770 ng·h/mL and the Cmax [2] was 212 ng/mL. For the same compound, the Tmax [2] was 2 h, the half-life [2] was 4.83 h and the concentration at 0.5 h (5 mg/kg, Individual Compound 1 Plasma Concentration, daily oral 5 mg/kg, Day 1, Female, 0.5 h) was 246 ng/mL. For the same compound, the concentration at 2 h (5 mg/kg, Individual Compound 1 Plasma Concentration, daily oral 5 mg/kg, Day 1, Female, 2 h) was 533 ng/mL, the concentration at 8 h (5 mg/kg, Individual Compound 1 Plasma Concentration, daily oral 5 mg/kg, Day 1, Female, 8 h) was 432 ng/mL and the concentration at 24 h (5 mg/kg, Individual Compound 1 Plasma Concentration, daily oral 5 mg/kg, Day 1, Female, 24 h) was 23.2 ng/mL. For the same compound, the concentration at 1 h (5 mg/kg, Individual Compound 1 Plasma Concentration, daily oral 5 mg/kg, Day 14, Female, 1 h) was 428 ng/mL, the concentration at 4 h (5 mg/kg, Individual Compound 1 Plasma Concentration, daily oral 5 mg/kg, Day 14, Female, 4 h) was 423 ng/mL and the concentration at 8 h (5 mg/kg, Individual Compound 1 Plasma Concentration, daily oral 5 mg/kg, Day 14, Female, 8 h) was 234 ng/mL. For the same compound, the concentration at 12 h (5 mg/kg, Individual Compound 1 Plasma Concentration, daily oral 5 mg/kg, Day 14, Female, 12 h) was 112 ng/mL, the concentration at 24 h (5 mg/kg, Individual Compound 1 Plasma Concentration, daily oral 5 mg/kg, Day 14, Female, 24 h) was 22.2 ng/mL and the concentration at 0.5 h (5 mg/kg, Mean Compound 1 Plasma Concentration, oral 5 mg/kg, Day 1, 0.5 h, Female) was 267 ng/mL. For the same compound, the concentration at 1 h (5 mg/kg, Mean Compound 1 Plasma Concentration, oral 5 mg/kg, Day 1, 1 h, Female) was 406 ng/mL, the concentration at 2 h (5 mg/kg, Mean Compound 1 Plasma Concentration, oral 5 mg/kg, Day 1, 2 h, Female) was 528 ng/mL and the concentration at 4 h (5 mg/kg, Mean Compound 1 Plasma Concentration, oral 5 mg/kg, Day 1, 4 h, Female) was 482 ng/mL. The concentration at 8 h (5 mg/kg, Mean Compound 1 Plasma Concentration, oral 5 mg/kg, Day 1, 8 h, Female) was 360 ng/mL, the concentration at 12 h (5 mg/kg, Mean Compound 1 Plasma Concentration, oral 5 mg/kg, Day 1, 12 h, Female) was 140 ng/mL and the concentration at 24 h (5 mg/kg, Mean Compound 1 Plasma Concentration, oral 5 mg/kg, Day 1, 24 h, Female) was 18.6 ng/mL. It also gave a concentration at 0.5 h (5 mg/kg, Mean Compound 1 Plasma Concentration, oral 5 mg/kg, Day 14, 0.5 h, Female) of 382 ng/mL, a concentration at 1 h (5 mg/kg, Mean Compound 1 Plasma Concentration, oral 5 mg/kg, Day 14, 1 h, Female) of 519 ng/mL and a concentration at 2 h (5 mg/kg, Mean Compound 1 Plasma Concentration, oral 5 mg/kg, Day 14, 2 h, Female) of 493 ng/mL. It also gave a concentration at 4 h (5 mg/kg, Mean Compound 1 Plasma Concentration, oral 5 mg/kg, Day 14, 4 h, Female) of 439 ng/mL, a concentration at 8 h (5 mg/kg, Mean Compound 1 Plasma Concentration, oral 5 mg/kg, Day 14, 8 h, Female) of 255 ng/mL and a concentration at 12 h (5 mg/kg, Mean Compound 1 Plasma Concentration, oral 5 mg/kg, Day 14, 12 h, Female) of 105 ng/mL. It also gave a concentration at 24 h (5 mg/kg, Mean Compound 1 Plasma Concentration, oral 5 mg/kg, Day 14, 24 h, Female) of 19.2 ng/mL, a concentration at […] (5 mg/kg, Mean Compound 1 Plasma Concentration, oral 5 mg/kg, Female) of 70.7 ng/mL and an AUC(0-inf) [3] of 5440 ng·h/mL. For the same compound, the AUC(0-t) [3] was 5340 ng·h/mL, the Cmax [3] was 528 ng/mL and the Tmax [3] was 2 h. It also gave a half-life [3] of 3.82 h, an AUC(0-inf) [4] of 4740 ng·h/mL and an AUC(0-t) [4] of 4620 ng·h/mL. For the same compound, the Cmax [4] was 519 ng/mL.
